According to patent US6552080B1, “Fungicidal compounds having a fluorovinyl-or fluoropropenyl-oxyphenyloxime moiety and process for the preparation thereof” (Korea Research Institute of Chemical Technology, priority 1999, dated 2003):
Read-outs that look alike come from different tables or passages of the source.

How the values were obtained:
Erysiphae graminis = test: Fungicidal activity against Barley Powdery Mildew (BPM) disease; type: in vivo; conditions: for BPM (Fungicidal Activities, C.V.): Barley Powdery Mildew
Rhizoctonia solani AG-1 = test: Fungicidal activity against Rice Sheath Blight (RSB) disease; conditions: for RSB (Fungicidal Activities, C.V.): Rice Sheath Blight
Description: To examine fungicidal activity of the compounds of the present invention, each of the compounds listed in Table 3 and 4 was dissolved in 10% acetone to a concentration of 250 ppm, and Tween-20 was added thereto to a concentration of 250 or 500 ppm. 50 ml of the resulting solution was sprayed on leaves of a host plant. The plant was kept at room temperature for 24 hours to let the solvent evaporate, and then, a pathogenic fungus was inoculated thereonto. The plant was held in a humidity chamber for 24 hours, transferred to an plant growth room kept at 20 to 27° C. and a relative humidity of 60 to 80% and kept to induce disease. […] This procedure was repeated twice for each test. 10% Acetone solution containing 250 ppm of Tween-20 was used as a control.
The fungicidal activity of the compound of the present invention is repressed by a control value (C.V.) calculated as; [formula]
Rhizoctonia solani AG-1 was cultured on a PDA medium (potato 200 g, dextrose 20 g, agar 20 g and distilled water 1 ? for 3 days and the agar disc(diameter 0.6 cm) was inoculated and cultured on sterilized wheat bran medium in a 1 L bottle at 26 to 28° C. for 7 days. A mycelial mass was ground using a homogenizer, inoculated uniformly on soil of a pot wherein a Nakdong rice plant having 2 or 3 leaves and an height of 5 cm grew, and kept in humidity polyvinyl chamber for 5 days to induce RSB. L.A. on a leaf sheath was measured to calculate an C.V.

Phytophthora infestans = type: in vivo; conditions: for TLB (Fungicidal Activities, C.V.): Tomato Late Blight
Puccinia recondita = test: Fungicidal activity against Wheat Leaf Rust (WLR) disease; type: in vivo; conditions: for WLR (Fungicidal Activities, C.V.): Wheat Leaf Rust
Botrytis cinerae = test: Fungicidal activity against Cucumber Gray Mold Rot (CGM) disease; type: in vivo; conditions: for CGM (Fungicidal Activities, C.V.): Cucumber Gray Mold Rot, concentration 50 ppm; for Fungicidal Activities CGM (C.V.): 50 ppm
[1] = system: Pyricularia oryzae Carvara KA301; type: in vivo; conditions: for RCV (Fungicidal Activities, C.V.): Rice Blast

SMILES | BPM (Fungicidal Activities, C.V.) (Erysiphae graminis; concentration 2 ppm) [%] | BPM (Fungicidal Activities, C.V.) (Erysiphae graminis; concentration 50 ppm) [%] | RSB (Fungicidal Activities, C.V.) (Rhizoctonia solani AG-1; concentration 2 ppm) [%] | RSB (Fungicidal Activities, C.V.) (Rhizoctonia solani AG-1; concentration 50 ppm) [%] | TLB (Fungicidal Activities, C.V.) (Phytophthora infestans; concentration 50 ppm) [%] | WLR (Fungicidal Activities, C.V.) (Puccinia recondita; concentration 2 ppm) [%] | WLR (Fungicidal Activities, C.V.) (Puccinia recondita; concentration 50 ppm) [%] | CGM (Fungicidal Activities, C.V.) (Botrytis cinerae) [%] | RCV (Fungicidal Activities, C.V.) ([1]; concentration 2 ppm) [%] | RCV (Fungicidal Activities, C.V.) ([1]; concentration 50 ppm) [%] | Fungicidal Activities BPM (C.V.) (Erysiphae graminis; 2 ppm) [%] | Fungicidal Activities BPM (C.V.) (Erysiphae graminis; 50 ppm) [%] | Fungicidal Activities RSB (C.V.) (Rhizoctonia solani AG-1; 2 ppm) [%] | Fungicidal Activities RSB (C.V.) (Rhizoctonia solani AG-1; 50 ppm) [%] | Fungicidal Activities TLB (C.V.) (Phytophthora infestans; 50 ppm) [%] | Fungicidal Activities WLR (C.V.) (Puccinia recondita; 2 ppm) [%] | Fungicidal Activities WLR (C.V.) (Puccinia recondita; 50 ppm) [%] | Fungicidal Activities CGM (C.V.) (Botrytis cinerae) [%] | Fungicidal Activities RCV (C.V.) ([1]; 2 ppm) [%] | Fungicidal Activities RCV (C.V.) ([1]; 50 ppm) [%] | also measured
CON=C(C(=O)OC)c1ccccc1CON=C(C)c1cccc(OC(F)=Cc2cccc(Cl)c2)c1 [Compound 75] | 100 | 100 | 25 | 100 | 66 | 98 | 100 | 0 | 100 | 100 | – | – | – | – | – | – | – | – | – | – | TLB (Fungicidal Activities, C.V.) (Phytophthora infestans; concentration 2 ppm): 0%
CNC(=O)C(=NOC)c1ccccc1CON=C(C)c1cccc(OC(F)=C(c2cccc(OC)c2)C(F)(F)F)c1 [Compound 197] | – | – | – | – | – | – | – | – | – | – | 100 | 100 | 35 | 80 | 50 | 98 | 100 | 85 | 100 | 100 | Fungicidal Activities TLB (C.V.) (Phytophthora infestans; 2 ppm): 0%
CCCCc1ccc(C(=C(F)Oc2cccc(C(C)=NOCc3ccccc3C(=COC)C(=O)OC)c2)C(F)(F)F)cc1 [Compound 156] | – | 92 | – | 20 | 0 | – | 93 | 36 | – | 33 | – | – | – | – | – | – | – | – | – | – | BPM (Fungicidal Activities, C.V.) (Erysiphae graminis; concentration 10 ppm): 91%; WLR (Fungicidal Activities, C.V.) (Puccinia recondita; concentration 10 ppm): 95%
CON=C(C(=O)OC)c1ccccc1CON=C(C)c1cccc(OC(F)=C(c2cccc(OC)c2)C(F)(F)F)c1 [Compound 180] | – | – | – | – | – | – | – | – | – | – | 98 | 100 | 25 | 60 | 56 | 97 | 100 | 56 | 86 | 100 | –
CCOc1ccc(C=C(F)Oc2cccc(C(C)=NOCc3ccccc3C(=NOC)C(=O)OC)c2)cc1 [Compound 73] | 100 | 100 | 25 | 100 | 60 | 98 | 100 | 0 | 100 | 95 | – | – | – | – | – | – | – | – | – | – | TLB (Fungicidal Activities, C.V.) (Phytophthora infestans; concentration 2 ppm): 0%
CNC(=O)C(=COC)c1ccccc1CON=C(C)c1cccc(OC(F)=Cc2ccc(Cl)c(C)c2)c1 [Compound 61] | – | 86 | – | 23 | 0 | – | 43 | 33 | – | 91 | – | – | – | – | – | – | – | – | – | – | –
CNC(=O)C(=NOC)c1ccccc1CON=C(C)c1cccc(OC(F)=C(c2ccc(OC)cc2)C(F)(F)F)c1 [Compound 198] | – | – | – | – | – | – | – | – | – | – | 41 | 100 | – | 58 | 0 | 53 | 100 | 16 | 95 | 100 | –
CON=C(C(=O)OC)c1ccccc1CON=C(C)c1cccc(OC(F)=C(c2ccc(Cl)cc2)C(F)(F)F)c1 [Compound 185] | – | – | – | – | – | – | – | – | – | – | 98 | 100 | 25 | 75 | 50 | 95 | 100 | 0 | 73 | 96 | Fungicidal Activities TLB (C.V.) (Phytophthora infestans; 2 ppm): 25%
CON=C(C(=O)OC)c1ccccc1CON=C(C)c1cccc(OC(F)=C(c2ccc(OC)cc2)C(F)(F)F)c1 [Compound 181] | – | – | – | – | – | – | – | – | – | – | 83 | 100 | 35 | 45 | 30 | 83 | 99 | 77 | 98 | 95 | Fungicidal Activities TLB (C.V.) (Phytophthora infestans; 2 ppm): 68%
COC=C(C(=O)OC)c1ccccc1CON=C(C)c1cccc(OC(F)=C(c2ccccc2)C(F)(F)F)c1 [Compound 150] | 100 | 100 | 55 | 92 | 50 | 95 | 100 | 44 | 83 | 100 | – | – | – | – | – | – | – | – | – | – | BPM (Fungicidal Activities, C.V.) (Erysiphae graminis; concentration 10 ppm): 100%; RSB (Fungicidal Activities, C.V.) (Rhizoctonia solani AG-1; concentration 10 ppm): 65%; WLR (Fungicidal Activities, C.V.) (Puccinia recondita; concentration 10 ppm): 100%; RCV (Fungicidal Activities, C.V.) ([1]; concentration 10 ppm): 100%
CNC(=O)C(=NOC)c1ccccc1CON=Cc1cccc(OC(F)=C(c2ccccc2)C(F)(F)F)c1 [Compound 139] | 97 | 98 | 10 | 20 | 46 | 93 | 98 | 0 | 53 | 100 | – | – | – | – | – | – | – | – | – | – | –
COC=C(C(=O)OC)c1ccccc1CON=Cc1cccc(OC(F)=Cc2ccc(C)cc2)c1 [Compound 3] | 86 | 100 | – | 60 | 84 | 96 | 100 | 46 | 0 | 100 | – | – | – | – | – | – | – | – | – | – | BPM (Fungicidal Activities, C.V.) (Erysiphae graminis; concentration 10 ppm): 99%; WLR (Fungicidal Activities, C.V.) (Puccinia recondita; concentration 10 ppm): 98%; RCV (Fungicidal Activities, C.V.) ([1]; concentration 10 ppm): 80%
CON=C(C(=O)OC)c1ccccc1CON=C(C)c1cccc(OC(F)=Cc2cccc(C)c2)c1 [Compound 65] | 99 | 100 | 30 | 100 | 0 | 99 | 100 | 71 | 100 | 100 | – | – | – | – | – | – | – | – | – | – | BPM (Fungicidal Activities, C.V.) (Erysiphae graminis; concentration 10 ppm): 100%; RSB (Fungicidal Activities, C.V.) (Rhizoctonia solani AG-1; concentration 10 ppm): 60%; WLR (Fungicidal Activities, C.V.) (Puccinia recondita; concentration 10 ppm): 100%; RCV (Fungicidal Activities, C.V.) ([1]; concentration 10 ppm): 100%
CNC(=O)C(=NOC)c1ccccc1CON=C(C)c1cccc(OC(F)=C(c2ccc(C)c(C)c2)C(F)(F)F)c1 [Compound 193] | – | – | – | – | – | – | – | – | – | – | 90 | 100 | 30 | 80 | 40 | 98 | 100 | 75 | 93 | 96 | Fungicidal Activities TLB (C.V.) (Phytophthora infestans; 2 ppm): 12%
